Values belong to the molecule of their own block, whether it stands above or below them.
Experiments:
[1] = tested on: bFGF-induced corneal neovascularization; assay: Corneal angiogenic assay; assay type: in vivo, rat
Description: Basic FGF (“bFGF”) has been tested in this corneal angiogenic assay in various research laboratories for a variety of purposes. It has been shown that bFGF can induce significant angiogenesis in corneas (e.g., in rabbits, rats and mice). Based on the previous studies, bFGF was used in our study of TNF-gamma as an angiogenic factor to induce the growth of blood vessels in rat corneas.
An incision, 1-1.5 mm in length, is made in the center of the cornea with a microsurgery scalpel blade.
Starting at the incision, a micropocket is created between the collagenous layers of the corneal stroma with a Castroviego cyclodialysis spatula. This pocket extends to a point 1-2 mm from the capillary bed at the corneal-scleral limbus.
bFGF, which is incorporated 1:1 into non-inflammatory Hydron polymer (available from Interferon Sciences, New Brunswick, N.J.), is implanted into the pocket.
Five or seven days after corneal implantation, corneal blood perfusion with colloidal carbon is performed. Corneas are then harvested, fixed, flattened, mounted and photographed for morphology.
An image analysis system (IPLab) is used to quantify the corneal angiogenesis. The corneal surface area, which is covered by the new blood vessels, is quantified and used in our current study. After corneal implantation surgery, TNF-gamma, angiostatin or PBS in a volume of 25 microliters was injected into the conjunctival region adjacent to the implantation site. Based on molarities of TNF-gamma and angiostatin, 10 micrograms of TNF-gamma or 5 micrograms of angiostatin were given respectively four times, once a day, during the first four days post-surgery. TNF-gamma and angiostatin were prepared in PBS.
bFGF was used to induce neovascularization of the cornea from preexisting pericorneal limbal vessels in two different versions of the assay. First, corneas were surgically implanted with hydrogel plugs containing bFGF. […] In a separate study using an alternate version of this assay, both bFGF and treatment protein were co-administered on a nitrocellulose filter disk implanted within the rat corneal stroma. […] In both assays, the surface area of the angiogenic response was quantitated from digital images of treated corneas five days following implantation.

[2] = tested on: bovine pulmonary artery endothelial cells (BPAEC); assay: Endothelial cell apoptosis (morphology, Hoechst staining, DNA fragmentation); assay type: cell-based
Description: [Bovine pulmonary artery endothelial cells were incubated with various concentrations of TNF-gamma for 48 hours. The apoptosis was assessed by nuclear staining with Hoechst 33342 fluorescence dye (10 mg/ml).] […] [U937 cells were transfected using lipofectamine (following manufacturer's instruction) with 0.2 mg of reporter plasmid (NF-kappaB-SEAP). The transfected U937 cells were collected and added to the 96-well plate ([…]/well) with various concentrated of TNF-gamma. After Incubation at 37° C. for 72 hr, the NF-kappaB activity was measured with luminometer at absorbance of 450 nm.]
Bovine pulmonary artery endothelia cells (BPAEC) were incubated with various concentrations of TNF-gamma for 48 hours. Apoptosis was assessed morphologically and by nuclear staining with Hoechst 33342 fluorescence dye (10 mg/ml) in triplicate. Live and apoptotic cells were scored in four random fields, about 1,000 cells were counted. The DNA fragmentation was analyzed as described previously.
BPAEC were obtained from the American Type Culture Collection (Rockville, Md., USA). The cells were grown in DMEM supplemented with 10% heat-inactivated FCS in a humidified environment of 5% CO2/[…] at 37° C. as previously described (Yue, T. L., et al., Mol. Pharmacol. 51:951-962 (1997)). Cells at a subconfluent density were used. Before experiments, the medium was changed to DMEM contained 2% FCS. BPAEC from passages 17-20 were used in all studies.
To quantify cells undergoing apoptosis, cell monolayers were fixed and stained with Hoechst […] (Molecular probe, Eugene, Oreg., USA) as described previously (Yue, T. L., et al., Mol. Pharmacol. 51:951-962 (1997)). The morphological features of apoptosis (cell shrinkage, chromatin condensation, blebbing, and fragmentation) were monitored by fluorescence microscopy. Transmission electron microscopy study was done as reported previously (Yue, T. L., et al., Mol. Pharmacol. 51:951-962 (1997)).
DNA ladder: Cells treated with vehicle or TNF-gamma-alpha were lysed in lysis buffer containing 100 mM NaCl, 10 mM Tris-HCl, pH 8.0, 2.5 mM EEDTA, 0.5% SDS, and 100 micrograms/ml […]. The lysates were incubated at 55° C. for 16 h. After incubation, the lysates were gently extracted three times with pheno/chloroform/isoamyl alcohol, precipitated in ethanol, treated with DNAse-free RNAse, re-extracted, and precipitated again as described previously. DNA electrophoresis was carried out in 1.8% agarose gels containing ethidium bromide, and DNA fragmentations were visualized under ultraviolet light.
In situ end-labeling (TUNEL): BPAEC were cultured in two-chamber slides (Nunc) and treated with TNF-gamma-alpha for 8 to 24 h. In situ detection of apoptotic cells was performed by using terminal deoxyribonucleotide transferase-mediated dUTP nick end labeling with an ApopTag in situ apoptosis detection kit (Oncor) following the manufacturer's recommendation.
The cells were plated in two-chamber slides. The cells were cotransfected with 0.5 μg/ml of Pegfp-c-1 (Clontech; Li, Y. and Horwitz, M. S. Biotechnology 23:1026-1028) as a fluorescent marker of transfected cells together with 1 μg/ml of either the empty cloning vector pcDNA1 (control) or the dominant-interfering c-Jun mutant pcDNA1-FlagΔ169 (Xia, Z., et al., Science 270:1326-1331 (1995)) using Calphos Maximizer Transfection Kit (Clontech) according to the manufacturer's recommendation. Following transfection, the cells were allowed to recover in complete medium for 24 h. The cells were treated with TNF-gamma-alpha and the number of apoptotic cells was assessed by nuclear staining after fixation as described in Methods.

[3] = biological target: T1, recombinant, untagged TNF-gamma-beta protein (aa 72-251) (human, UniProt O95150 72-251); assay: BIAcore 3000, DR3-Fc immobilised on CM5 chip, TNF-gamma-beta in flow, 1:1 model, three batches
T1 construct: they are put here; also called TL1β; non-tagged TNF-gamma-beta
T1 sequence: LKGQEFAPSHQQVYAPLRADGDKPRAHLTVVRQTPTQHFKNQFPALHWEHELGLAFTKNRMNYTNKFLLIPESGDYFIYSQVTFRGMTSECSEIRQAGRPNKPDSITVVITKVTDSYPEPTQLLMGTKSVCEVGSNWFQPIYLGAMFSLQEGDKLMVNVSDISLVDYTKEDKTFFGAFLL
Description: TNFR-Fc were covalently immobilized to the BIAcore sensor chip (CM5 chip) via amine groups using N-ethyl-N′-(dimethylaminopropyl) carbodiimide/N-hydroxysuccinimide chemistry. […] The amount of bound protein was determined during washing of the flow cell with HBS buffer (10 mM HEPES, pH 7.4, 150 mM NaCl, 3.4 mM EDTA, 0.005% Surfactant P20). The flow cell surface was regenerated by displacing bound protein by washing with 20 microliters of 10 mM glycine-HCl, pH 2.3. For kinetic analysis, the on and off rates were determined using the kinetic evaluation program in BIAevaluation 3 software using a 1:1 binding model and the global analysis method.

TNF-gamma-beta = biological target: T2, TNF-gamma-beta (Homo sapiens, UniProt O95150); assay: FACS binding of receptor-Fc proteins to cells expressing full length TNF-gamma-beta
T2 construct: expressed in transfected cells
T2 sequence (O95150 1-251): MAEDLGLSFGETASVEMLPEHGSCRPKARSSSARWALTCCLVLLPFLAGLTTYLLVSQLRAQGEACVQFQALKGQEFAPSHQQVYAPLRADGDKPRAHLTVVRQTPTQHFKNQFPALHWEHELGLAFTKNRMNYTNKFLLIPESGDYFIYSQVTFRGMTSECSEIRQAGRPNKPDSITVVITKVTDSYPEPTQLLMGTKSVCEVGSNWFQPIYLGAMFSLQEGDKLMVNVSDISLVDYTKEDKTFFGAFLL
Description: These cells were used to screen the Fc-fusion form of the extracellular domain of TNFR family members, including TNFR1, Fas, HveA, DR3, DR4, DR5, DR6, DcR1, DcR2, TR6, OPG, RANK, AITR, TAC1, CD40, and OX40. […] TR6 has been previously described as a decoy receptor (Pitti et al., Nature 396:699-703 (1998); Yu et al., J. Biol. Chem. 274:13733-6 (1999)) capable of competing with Fas and HveA for binding of FasL and LIGHT, respectively.
Cells resistant to 0.5 mg/ml Genticin (Invitrogen) were selected and expanded. Expression of TNF-gamma-beta mRNA was confirmed by quantitative RT-PCR analysis and surface expression of TNF-gamma-beta protein confirmed by FACS analyses using TNF-gamma-beta monoclonal antibodies.
One million cells, in 0.1 ml of FACS buffer (PBS, 0.1% BSA, 0.1% NaN3), were incubated with 0.1-1 microgram of protein or antibody at RT for 15 min. The cells were washed with 3 ml of FACS buffer, reacted with biotinylated primary antibody, and stained with PE-conjugated secondary antibody at RT for 15 min. Cells were then washed again, resuspended in 0.5 microgram/ml of propidium iodide, and live cells were gated and analyzed on a FACScan using the CellQuest software (BD Biosciences).

Molecule: angiostatin
angiogenic process in bFGF-implanted corneas ([1]; bFGF (300 ng) implant, conjunctival injection once a day for four days, 10 micrograms TNF-gamma or 5 micrograms angiostatin, seven days after surgery, vs PBS): significantly slowed down the angiogenic process
maximal decrease in rat corneal neovascularization induced by bFGF ([1]; comparison of TNF-gamma-beta and angiostatin): similar
vessel growth in PBS-implanted corneas ([1]; multiple conjunctival injections): no obvious vessel growth

Molecule: ZVAD-fmk [reference compound]
effect of caspase inhibitor on TNF-gamma-alpha-induced BPAEC apoptosis ([2]; added 1 h prior to TNF-gamma-alpha, Ac-YYAD-CHO up to 100 μM): attenuated

Molecule: C[S+]([O-])c1ccc(-c2nc(-c3ccncc3)c(-c3ccc(F)cc3)[nH]2)cc1 (stereo not drawn) [SB203580, reference compound]
reduction of TNF-gamma-alpha-induced BPAEC apoptosis ([2]; 3 μM): 33%
reduction of TNF-gamma-alpha-induced BPAEC apoptosis ([2]; 10 μM): 51%

Kd [3]: 6.45 nM
kon [3]: 639000 M⁻¹ s⁻¹
B1: DR3-Fc (extracellular domain of human DR3, aa 1-199, fused to the Fc domain of human IgG1) (Fc fusion, UniProt Q93038 25-199, looked up)
chain: QGGTRSPRCDCAGDFHKKIGLFCCRGCPAGHYLKAPCTEPCGNSTCLVCPQDTFLAWENHHNSECARCQACDEQASQVALENCSAVADTRCGCKPGWFVECQVSQCVSSSPFYCQPCLDCGALHRHTRLLCSRRDTDCGTCLPGFYEHGDGCVSCPTSTLGSCPERCAAVCGWRQ
notes: range 1-199; not shown: Fc domain of human IgG1, fused in-frame to the C-terminus of the receptor part

binding to cells expressing TNF-gamma-beta (FACS) (TNF-gamma-beta): did not bind
B2: HveA-Fc: extracellular domain of HveA (aa 1-192) fused to Fc of human IgG1 (protein)
chain: LPSCKEDEYPVGSECCPKCSPGYRVKEACGELTGTVCEPCPPGTYIAHLNGLSKCLQCQMCDPAMGLRASRNCSRTENAVCGCSPGHFCIVQDGDHCAACRAYATSSPGQRVQKGGTESQDTLCQNCPPGTFSPNGTLEECQHQTKCSWLVTKA
modifications: left off: a dimerising Fc or GST
notes: extracellular domain of HveA (aa 1-192) fused to Fc of human IgG1

competition with DR3-Fc for binding to TNF-gamma-beta expressing cells (TNF-gamma-beta; 2:1 molar ratio of non-tagged TR6 and DR3-Fc): no binding of DR3-Fc was detected
B3: TR6: non-tagged TNFR-6 alpha (DcR3) decoy receptor protein (protein)
chain: VAETPTYPWRDAETGERLVCAQCPPGTFVQRPCRRDSPTTCGPCPPRHYTQFWNYLERCRYCNVLCGEREEEARACHATHNRACRCRTGFFAHAGFCLEHASCPPGAGVIAPGTPSQNTQCQPCPPGTFSASSSSSEQCQPHRNCTALGLALNVPGSSSHDTLCTSCTGFPLSTRVPGAEECERAVIDFVAFQDISIKRLQRLLQALEAPEGWGPTPRAGRAALQLKLRRRLTELLGAQDGALLVRLLQALRVARMPGLERSVRERFLPVH

B4: sTNFR1: Mouse soluble TNF receptor 1 from R&D Systems (protein, UniProt P25118 30-212, looked up)
extracellular domain: LVPSLGDREKRDSLCPQGKYVHSKNNSICCTKCHKGTYLVSDCPSPGRDTVCRECEKGTFTASQNYLRQCLSCKTCRKEMSQVEISPCQADKDTVCGCKENQFQRYLSETHFQCVDCSPCFNGTVTIPCKETQNTVCNCHAGFFLRESECVPCSHCKKNEECMKLCLPPPLANVTNPQDSGTA
modifications: extracellular domain
notes: Mouse soluble TNF receptor 1 from R&D Systems
effect on TNF-gamma-alpha-induced apoptosis ([2]; BPAEC): Neither sTNFR1 nor sTNFR2 showed effect
effect on TNFa-induced apoptosis ([2]; BPAEC, same condition): reduced by sTNFR1 significantly
